Reference: patent publication US8124764B2, “Fused heterocyclyc inhibitor compounds” (Gilead Sciences, Inc., priority 2008, dated 2012)

Tests used:
HDAC 1 = HDAC 1 (Homo sapiens, UniProt Q13547); assay: HDAC 1 inhibition assay with about 3 hours enzyme/compound preincubation (fluorophore/quencher peptide substrate); type: biochemical; conditions: 3-hour preincubation of enzyme with compound; read-out: HDAC 1 inhibitory activity (IC50 [μM]) (3-hour preincubation)
Method: HDAC inhibitory activity of the compound of Example 1 was measured by two types of assays in which HDAC 1 was used as a target molecule. The first assay was carried out without preincubation after addition of the enzyme. The test compound was suspended in and titrated in dmso. It was then spotted into a 384-well test plate. The enzyme, HDAC 1, was diluted in assay buffer containing 25 mM Tris-HCl (pH 8.0), 137 mM NaCl, 2.7 mM KCl, and 0.01% Tween-20 and added to the pre-spotted compound. The peptide substrate containing a fluorophore/quencher pair was diluted in the same assay buffer and added to the compound/enzyme mix initiating the reaction. The reaction incubated at room temperature for about 45 minutes. A concentrated developer solution was diluted in the assay buffer, and added to the reaction. The reaction was incubated at room temperature for about 15 minutes and relative fluorescence was read on an instrument reader.
The second assay is similar to the first assay described above, except that preincubation is carried out for about 3 hours after the enzyme is introduced. The test compound was suspended in, and titrated in DMSO. It was then spotted into a 384-well test plate. The enzyme, HDAC 1, was diluted in the same assay buffer as used in the previous assay and added to the pre-spotted compound. The enzyme/compound mix was incubated at room temperature for about 3 hours. The peptide substrate containing a fluorophore/quencher pair was diluted in the assay buffer and added to the compound/enzyme mix initiating the reaction. The reaction incubated at room temperature for 45 minutes. A concentrated developer solution was diluted in the assay buffer, and added to the reaction. The reaction was incubated at room temperature for about 15 minutes and relative fluorescence was read on an instrument reader.

CDK2 = CDK2 (Homo sapiens, UniProt P24941); assay: CDK2 inhibition; type: biochemical

HDAC 1, sequence (Q13547 whole entry, species assumed): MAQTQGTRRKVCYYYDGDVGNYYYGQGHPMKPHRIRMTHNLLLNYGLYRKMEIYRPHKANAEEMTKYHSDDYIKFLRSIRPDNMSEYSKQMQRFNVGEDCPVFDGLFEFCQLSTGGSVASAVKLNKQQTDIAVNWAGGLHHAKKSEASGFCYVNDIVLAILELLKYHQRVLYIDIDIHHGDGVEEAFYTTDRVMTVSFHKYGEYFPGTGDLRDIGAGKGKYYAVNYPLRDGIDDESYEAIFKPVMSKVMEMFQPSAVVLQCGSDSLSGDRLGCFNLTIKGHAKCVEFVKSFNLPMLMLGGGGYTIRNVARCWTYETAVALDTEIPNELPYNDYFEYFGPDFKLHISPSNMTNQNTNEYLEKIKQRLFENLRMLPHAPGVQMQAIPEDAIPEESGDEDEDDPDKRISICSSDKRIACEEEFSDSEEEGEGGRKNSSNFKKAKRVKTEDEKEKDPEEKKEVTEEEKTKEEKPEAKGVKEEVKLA

`Nc1ccccc1NC(=O)c1ccc(N(CC(F)(F)F)c2nccc(-c3cnc4ccccn34)n2)cc1` [Example 58, N-(2-Amino-phenyl)-4-[(4-imidazo[1,2-a]pyridin-3-yl-pyrimidin-2-yl)-(2,2,2-trifluoro-ethyl)-amino]-benzamide] gave an IC50 (HDAC 1) of 5.58 µM and an IC50 (CDK2) greater than 40 µM.

Work on `Cc1nc2ccccn2c1-c1ccnc(Nc2cnc(C(=O)NO)cn2)n1` [Example 67, N-hydroxy-5-(4-(2-methylimidazo[1,2-a]pyridin-3-yl)pyrimidin-2-ylamino)pyrazine-2-carboxamide] yielded an IC50 (HDAC 1) of 0.169 µM and an IC50 (CDK2) of 0.68 µM.

`Cc1nc2ncccn2c1-c1ccnc(Nc2ccc(C(=O)Nc3ccccc3N)cc2)n1` [Example 22, N-(2-Amino-phenyl)-4-[4-(2-methyl-imidazo[1,2-a]pyrimidin-3-yl)-pyrimidin-2-ylamino]-benzamide] gave an IC50 (HDAC 1) of 0.071 µM and an IC50 (CDK2) of 2.87 µM.

For `Cc1nc2ccc(Br)cn2c1-c1ccnc(Nc2ccc(C(=O)Nc3ccccc3N)cc2)n1` [Example 47, N-(2-Amino-phenyl)-4-[4-(6-bromo-2-methyl-imidazo[1,2-a]pyridin-3-yl)-pyrimidin-2-ylamino]-benzamide], the IC50 (HDAC 1) was greater than 10 µM and the IC50 (CDK2) was 0.14 µM.

`COc1ccn2c(-c3ccnc(Nc4ccc(C(=O)NO)cc4)n3)c(C)nc2c1` [Example 13, N-Hydroxy-4-[4-(7-methoxy-2-methyl-imidazo[1,2-a]pyridin-3-yl)-pyrimidin-2-ylamino]-benzamide] gave an IC50 (HDAC 1) of 0.04 µM and an IC50 (CDK2) of 0.04 µM.

For `Cc1nc2ccccn2c1-c1ccnc(Nc2csc(C(=O)NO)c2)n1` [Example 71, N-hydroxy-4-(4-(2-methylimidazo[1,2-a]pyridin-3-yl)pyrimidin-2-ylamino)thiophene-2-carboxamide], the IC50 (HDAC 1) was 0.185 µM and the IC50 (CDK2) was 0.026 µM.

In the case of `Cc1nc2ccccn2c1-c1ccnc(Nc2ccc(C(=O)NO)cn2)c1` [Example 69, N-hydroxy-6-(4-(2-methylimidazo[1,2-a]pyridin-3-yl)pyridin-2-ylamino)nicotinamide], the IC50 (HDAC 1) is reported as 0.141 µM and the IC50 (CDK2) is reported as 0.15 µM.

For `COc1ccc2nc(C)c(-c3ccnc(Nc4ccc(C(=O)NO)cc4)n3)n2c1` [Example 43, N-Hydroxy-4-[4-(6-methoxy-2-methyl-imidazo[1,2-a]pyridin-3-yl)-pyrimidin-2-ylamino]-benzamide], the IC50 (HDAC 1) was 0.14 µM and the IC50 (CDK2) was 0.08 µM.

With `COc1ccn2c(-c3ccnc(Nc4ccc(C(=O)Nc5ccccc5N)cc4)n3)c(C)nc2c1` [Example 14, N-(2-Amino-phenyl)-4-[4-(7-methoxy-2-methyl-imidazo[1,2-a]pyridin-3-yl)-pyrimidin-2-ylamino]-benzamide] the IC50 (HDAC 1) was roughly 0.09 µM and the IC50 (CDK2) was 0.06 µM.

`Cc1nc2ccccn2c1-c1ccnc(Nc2ccc(C(=O)NO)cc2)c1` [Example 53, N-Hydroxy-4-[4-(2-methyl-imidazo[1,2-a]pyridin-3-yl)-pyridin-2-ylamino]-benzamide] showed an IC50 (HDAC 1) of 0.021 µM and an IC50 (CDK2) of 3.6 µM.

`Cc1nc2ccccn2c1-c1ccnc(Nc2ccc(C(=O)Nc3ccccc3N)cc2)c1` [Example 54, N-(2-Amino-phenyl)-4-[4-(2-methyl-imidazo[1,2-a]pyridin-3-yl)-pyridin-2-ylamino]-benzamide] was tested, and the IC50 (HDAC 1) was 0.053 µM and the IC50 (CDK2) was 13.1 µM.

Work on `Cc1nc2cccnn2c1-c1ccnc(Nc2ccc(C(=O)Nc3ccccc3N)cc2)n1` [Example 18, N-(2-Amino-phenyl)-4-[4-(2-methyl-imidazo[1,2-b]pyridazin-3-yl)-pyrimidin-2-ylamino]-benzamide] yielded an IC50 (HDAC 1) of 0.0239 µM and an IC50 (CDK2) of 0.59 µM.

`Cc1nc2ccccn2c1-c1ccnc(Nc2ccc(C(=O)Nc3ccccc3N)cn2)c1` [Example 70, N-(2-aminophenyl)-6-(4-(2-methylimidazo[1,2-a]pyridin-3-yl)pyridin-2-ylamino)nicotinamide] gave an IC50 (HDAC 1) of 0.073 µM and an IC50 (CDK2) of 0.87 µM.

`Cc1nc2cccnn2c1-c1ccnc(Nc2ccc(C(=O)NO)cc2)n1` [Example 17, N-Hydroxy-4-[4-(2-methyl-imidazo[1,2-b]pyridazin-3-yl)-pyrimidin-2-ylamino]-benzamide] showed an IC50 (HDAC 1) of 0.273 µM and an IC50 (CDK2) of 0.034 µM.

In the case of `COc1ccc2nc(C)c(-c3ccnc(Nc4ccc(C(=O)Nc5ccccc5N)cc4)n3)n2c1` [Example 42, N-(2-Amino-phenyl)-4-[4-(6-methoxy-2-methyl-imidazo[1,2-a]pyridin-3-yl)-pyrimidin-2-ylamino]-benzamide], the IC50 (HDAC 1) is reported as 0.388 µM and the IC50 (CDK2) is reported as 0.29 µM.

In the case of `Nc1ccccc1NC(=O)c1ccc(Nc2nccc(-c3cnc4ccccn34)n2)cc1` [Example 6, N-(2-Amino-phenyl)-4-(4-imidazo[1,2-a]pyridin-3-yl-pyrimidin-2-ylamino)-benzamide], the IC50 (HDAC 1) is reported as 0.197 µM and the IC50 (CDK2) is reported as 0.084 µM.

Work on `COc1ccn2c(-c3ccnc(Nc4ccc(C(=O)Nc5ccccc5N)cc4)n3)c(C(F)(F)F)nc2c1` [Example 48, N-(2-Amino-phenyl)-4-[4-(7-methoxy-2-trifluoromethyl-imidazo[1,2-a]pyridin-3-yl)-pyrimidin-2-ylamino]-benzamide] yielded an IC50 (HDAC 1) of 0.06 µM and an IC50 (CDK2) of 0.14 µM.

With `Cc1nc2cnccn2c1-c1ccnc(Nc2ccc(C(=O)Nc3ccccc3N)cc2)n1` [Example 20, N-(2-Amino-phenyl)-4-[4-(2-methyl-imidazo[1,2-a]pyrazin-3-yl)-pyrimidin-2-ylamino]-benzamide] the IC50 (HDAC 1) was 0.165 µM and the IC50 (CDK2) was 0.9 µM.

With `Cc1nc2cc(CN(C)C)ccn2c1-c1ccnc(Nc2ccc(C(=O)Nc3ccccc3N)cc2)n1` [Example 46, N-(2-Amino-phenyl)-4-[4-(7-dimethylaminomethyl-2-methyl-imidazo[1,2-a]pyridin-3-yl)-pyrimidin-2-ylamino]-benzamide] the IC50 (HDAC 1) was 0.13 µM and the IC50 (CDK2) was 1.61 µM.

Molecule `Cc1nc2ncccn2c1-c1ccnc(Nc2ccc(C(=O)NO)cc2)n1` [Example 21, N-Hydroxy-4-[4-(2-methyl-imidazo[1,2-a]pyrimidin-3-yl)-pyrimidin-2-ylamino]-benzamide] has an IC50 (HDAC 1) of 0.289 µM and an IC50 (CDK2) of 1.18 µM.

`Cc1nc2ccc(C(F)(F)F)cn2c1-c1ccnc(Nc2ccc(C(=O)NO)cc2)n1` [Example 11, N-Hydroxy-4-[4-(2-methyl-6-trifluoromethyl-imidazo[1,2-a]pyridin-3-yl)-pyrimidin-2-ylamino]-benzamide] showed an IC50 (HDAC 1) of 0.089 µM and an IC50 (CDK2) of 0.07 µM.

For `Cc1nc2ccccn2c1-c1ccnc(Nc2ccc(C(=O)Nc3ccccc3N)c(F)c2)n1` [Example 36, N-(2-Amino-phenyl)-2-fluoro-4-[4-(2-methyl-imidazo[1,2-a]pyridin-3-yl)-pyrimidin-2-ylamino]-benzamide], the IC50 (HDAC 1) was greater than 10 µM and the IC50 (CDK2) was 0.11 µM.

`COCCOc1ccc2nc(C)c(-c3ccnc(Nc4ccc(C(=O)Nc5ccccc5N)cc4)n3)n2c1` [Example 41, N-(2-Amino-phenyl)-4-{4-[6-(2-methoxy-ethoxy)-2-methyl-imidazo[1,2-a]pyridin-3-yl]-pyrimidin-2-ylamino}-benzamide] was tested, and the IC50 (HDAC 1) was 0.877 µM and the IC50 (CDK2) was 4.34 µM.

For `COCCNC(=O)c1ccc2nc(C)c(-c3ccnc(Nc4ccc(C(=O)Nc5ccccc5N)cc4)n3)n2c1` [Example 38, 3-(2-(4-(2-aminophenylcarbamoyl)phenylamino)pyrimidin-4-yl)-N-(2-methoxyethyl)-2-methylimidazo[1,2-a]pyridine-6-carboxamide], the IC50 (HDAC 1) was 0.312 µM and the IC50 (CDK2) was 2.74 µM.

For `Cc1nc2ccccn2c1-c1ccnc(Nc2ccc(C(=O)NO)cc2)n1` [Example 1, N-Hydroxy-4-(4-(2-methylimidazo[1,2-a]pyridin-3-yl)-pyrimidin-2-ylamino)-benzamide], the IC50 (HDAC 1) was 0.067 µM and the IC50 (CDK2) was 0.044 µM.

In the case of `Cc1nc2cc(N3CCOCC3)ccn2c1-c1ccnc(Nc2ccc(C(=O)Nc3ccccc3N)cc2)n1` [Example 23, N-(2-Amino-phenyl)-4-[4-(2-methyl-7-morpholin-4-yl-imidazo[1,2-a]pyridin-3-yl)-pyrimidin-2-ylamino]-benzamide], the IC50 (HDAC 1) is reported as 5.29 µM and the IC50 (CDK2) is reported as 0.67 µM.

With `Cc1nc2ccccn2c1-c1ccnc(Nc2ccc(C(=O)NO)s2)n1` [Example 52, N-hydroxy-5-(4-(2-methylimidazo[1,2-a]pyridin-3-yl)pyrimidin-2-ylamino)thiophene-2-carboxamide] the IC50 (HDAC 1) was 0.31 µM and the IC50 (CDK2) was 0.07 µM.

For `Cc1nc2ccccn2c1-c1ccnc(Nc2ncc(C(=O)NO)s2)n1` [Example 65, N-hydroxy-2-(4-(2-methylimidazo[1,2-a]pyridin-3-yl)pyrimidin-2-ylamino)thiazole-5-carboxamide], the IC50 (HDAC 1) was 0.109 µM and the IC50 (CDK2) was 1.86 µM.

With `Cc1nc2cc(C(=O)N3CCN(C)CC3)ccn2c1-c1ccnc(Nc2ccc(C(=O)Nc3ccccc3N)cc2)n1` [Example 27, N-(2-Amino-phenyl)-4-{4-[2-methyl-7-(4-methyl-piperazine-1-carbonyl)-imidazo[1,2-a]pyridin-3-yl]-pyrimidin-2-ylamino}-benzamide] the IC50 (HDAC 1) was 0.374 µM and the IC50 (CDK2) was 4.64 µM.

For `Nc1ccccc1NC(=O)c1ccc(Nc2cc(-c3cnc4ccccn34)ncn2)cc1` [Example 55, N-(2-Amino-phenyl)-4-(6-imidazo[1,2-a]pyridin-3-yl-pyrimidin-4-ylamino)-benzamide], the IC50 (HDAC 1) was 0.2 µM and the IC50 (CDK2) was greater than 40 µM.
